≈ marks a conversion by molar mass, not a printed value. Where “and” joins values, the source holds several entries; their conditions need not be identical. Equal values may be shown once. Read-outs that look alike come from different tables or passages of the source. One block for each compound: values may come before it. Non-standard residues stand in square brackets, D forms with d. Residues, ends and D or L forms follow the SMILES beside them. *: point of attachment. Orn = NCCC[C@H](N)C(=O)O; Ac5c = NC1(C(=O)O)CCCC1; Aib = CC(C)(N)C(=O)O; Butyryl = CCCC(=O)*
Experiments:
[1] = biological target: T1, purified human platelet TSP-1 (activation of recombinant latent TGF-β1) (Homo sapiens, UniProt P07996); experiment: ELISA-based screening assay: TSP-1 activation of recombinant latent TGF-β1; type: biochemical; conditions: for % Inhibition at 50 pM: Table 2, 5e-05 µM
T1 construct: purified human platelet TSP-1 was incubated with compounds; from tissue; host or cells: human platelets
T1 sequence (P07996 19-1170): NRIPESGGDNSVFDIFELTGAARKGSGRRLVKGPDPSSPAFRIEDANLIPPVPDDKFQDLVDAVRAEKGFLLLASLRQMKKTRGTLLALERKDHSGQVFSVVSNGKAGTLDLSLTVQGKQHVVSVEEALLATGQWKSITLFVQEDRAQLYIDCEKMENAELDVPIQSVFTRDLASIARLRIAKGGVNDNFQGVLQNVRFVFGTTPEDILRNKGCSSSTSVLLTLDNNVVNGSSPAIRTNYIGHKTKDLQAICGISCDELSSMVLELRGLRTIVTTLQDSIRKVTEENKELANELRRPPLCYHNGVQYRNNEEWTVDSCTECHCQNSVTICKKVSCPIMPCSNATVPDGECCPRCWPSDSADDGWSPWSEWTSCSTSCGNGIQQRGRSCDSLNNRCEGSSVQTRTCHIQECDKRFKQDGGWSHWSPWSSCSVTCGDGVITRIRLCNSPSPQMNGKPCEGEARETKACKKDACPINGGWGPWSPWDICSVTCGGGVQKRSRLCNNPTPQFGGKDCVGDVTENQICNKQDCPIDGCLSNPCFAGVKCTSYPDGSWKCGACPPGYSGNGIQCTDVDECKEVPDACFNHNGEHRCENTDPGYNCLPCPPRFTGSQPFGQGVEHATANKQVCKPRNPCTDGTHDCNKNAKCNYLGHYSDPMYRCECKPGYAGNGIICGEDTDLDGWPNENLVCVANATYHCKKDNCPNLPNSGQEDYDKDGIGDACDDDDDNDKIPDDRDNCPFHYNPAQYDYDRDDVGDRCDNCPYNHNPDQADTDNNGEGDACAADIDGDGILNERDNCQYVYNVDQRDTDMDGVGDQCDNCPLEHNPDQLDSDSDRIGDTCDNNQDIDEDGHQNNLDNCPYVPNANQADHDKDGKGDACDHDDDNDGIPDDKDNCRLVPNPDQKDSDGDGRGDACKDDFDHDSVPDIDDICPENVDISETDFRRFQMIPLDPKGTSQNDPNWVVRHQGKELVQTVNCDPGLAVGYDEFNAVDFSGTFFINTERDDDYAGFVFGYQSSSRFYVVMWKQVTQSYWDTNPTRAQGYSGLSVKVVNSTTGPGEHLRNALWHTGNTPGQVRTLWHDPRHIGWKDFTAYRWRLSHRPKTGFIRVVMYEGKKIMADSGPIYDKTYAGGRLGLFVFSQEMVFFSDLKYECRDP
Procedure: For initial screening, an ELISA-based screening assay was used in which purified human platelet TSP-1 was incubated with compounds and then incubated with recombinant latent TGF-β1 (purchased from R&D Systems). Activity is measured in a commercially available ELISA which detects only active TGF-β (R &D Systems). Activity in the presence of compounds is compared to activity in TSP-1+latent TGF-β samples without inhibitory compounds (Lu et al. (2016) Am J Pathol 186:678-690).

[2] = tested on: TSP-1 activation of latent TGF-β; experiment: cell-based assay of TSP1 activation of latent TGF-β (Table 3; Secondary Assay of Table 1); set-up: species or system human
Procedure: To specifically assess activity of compounds in liver cell specific assays, two different assays were used. In the first, human hepatic stellate cells were incubated overnight in low serum media to condition the media with secreted latent TGF-β. Purified TSP1 either preincubated with compounds or not will be added to cultures and then conditioned media harvested to assess TGF-β biological activity using the R&D Systems ELISA as above. Hepatic stellate cells will be purchased from commercial sources. Although hepatic stellate cells are the primary drivers of liver fibrosis, conditions which drive liver fibrosis can induce hepatocyte TSP-1 expression which can then have paracrine effects on controlling TGF-β activation in hepatic stellate cells. Furthermore, TGF-β can negatively impact hepatocyte regeneration following injury. Therefore, the ability of compounds to blockTSP-1 activation of latent TGF-β will also be assessed in cultured primary human hepatocytes following the protocol described for the hepatic stellate cells. Similar approaches have successfully been used to screen compounds which inhibit human myeloma cell derived latent TGF-β activation by TSP-1 (Lu et al. (2016) Am J Pathol 186:678-690).

[3] = biological target: TSP1 (activation of recombinant latent TGF-β1) (Homo sapiens, UniProt P07996); experiment: Latent TGF-β activation by TSP1 in vitro (Quantikine ELISA for TGF-β1); type: biochemical; conditions: TSP1 155 nM
Chain of TSP1 (activation of recombinant latent TGF-β1) (P07996 19-1170): as above
Procedure: Previous studies have illustrated the ability of tripeptide analogs such as compound no. 93 to block latent TGF-β activation by TSP1 in vitro (see FIG. 5 and FIG. 6). Briefly, TSP1 (155 nM, 20 μg/ml) was incubated for 10 min at 37° C. with 93, LSKL (SEQ ID NO:1), or control SLLK (SEQ ID NO:2) peptide. The mixture was then incubated with […] recombinant latent TGF-β1 for 20 min at 37° C. TGF-β1 activity was measured using an R&D systems Quantikine ELISA for TGF-β1.

[4] = Solubility; type: physicochemical
[5] = Log D; type: physicochemical
[6] = Rat liver microsomal stability; type: in vitro ADME; conditions: rat liver microsomes; read-out: Rat Liver Microsomal Stability t1/2
[7] = Human liver microsomal stability; type: in vitro ADME; conditions: human liver microsomes; read-out: Human Liver Microsomal Stability t1/2
[8] = Pharmacokinetics (% F, T1/2, Tmax); conditions: in vivo
[9] = tested on: MSCs; experiment: Osteoblast differentiation by MSCs under osteogenic conditions; type: cell-based; conditions: osteogenic media, 20 days; TGF-β 5 ng/mL, TSP1 10 nM, LSKL 25 μM
Procedure: Referring to FIG. 1A, MSCs were grown to confluence in basal (control) media. Cells were treated with control growth media, osteogenic media, or osteogenic media with TGF-β (5 ng/mL) or stripped TSP1 (10 nM), TSP1+LSKL (SEQ ID NO:1) (25 μM), TSP1+SLLK (SEQ ID NO:2) (25 μM control peptide), or TSP1+anti-TGF-β (5 μg/mL). Cultures were fed daily for 20 days. Alkaline phosphatase staining is representative of triplicate wells.
Referring to FIG. 1B, cells were treated every 2 days for 20 days with MSC growth media (control) or osteogenic media with TGF-β (5 ng/mL) or TSP1 (10 nM) daily treatment with 25 μM LSKL (SEQ ID NO:1) or SLLK (SEQ ID NO:2) peptides. RNA isolated from cells was used for RT-PCR analysis of Runx2 expression. Samples were run in duplicate and each experimental treatment in triplicate.

[10] = tested on: CAG MM cells; experiment: TGF-β activity in CAG MM cells (phospho-Smad 2 immunoblot); type: cell-based, human; conditions: 30 nM TSP1, 6 hrs
Procedure: Referring to FIG. 4A, CAG MM cells were incubated with 30 nM TSP1 for 6 hrs LSKL (SEQ ID NO:1) or SLLK (SEQ ID NO:2). Cell lysates were immunoblotted for phosphor-Smad 2. Blots were stripped and reprobed for total Smad 2/3 and GAPDH. Results are normalized to GAPDH (untreated controls=1). LSKL (SEQ ID NO:1) reduces TSP1 induced treatment or luciferase activity in cells treated with active TGF-β (not shown).

[11] = tested on: CAG human myeloma cells; experiment: SCID-tibia MM model; type: in vivo, SCID mice
Procedure: Referring to FIG. 2A and FIG. 2B, CAG human myeloma cells were injected into the intratibial marrow space of SCID mice. After 2 weeks, tumors were imaged by bioluminescence and serum 1 g kappa levels measured. Mice were randomized to equalize 1 g kappa levels. Osmotic pumps were implanted subcutaneously to deliver saline or LSKL peptide (SEQ ID NO:1) (30 mg/kg/day) (n=10/group). Tumors were imaged and serum 1 g kappa levels measured at 2 and 4 weeks of treatment. Data are means SEM. Bioluminescence; *p=0.019 ANOVA, serum kappa; p=0.037, t-test.
Referring to FIG. 3A-C, at 4 weeks of treatment, tibiae from mice injected with CAG MM cells were fixed and stained with antibody to phosphor-Smad 2. Left panels are from 2 different saline treated mice and the right panels are from LSKL (SEQ ID NO:1)-treated mice. Pixels of brown staining were quantified in 4 fields per animal. 5-6 animals per group were analyzed. Data are the percent area exceeding the threshold for positive staining (FIG. 3A). […] P=0.004.

[12] = tested on: CAG-heparanase MM cells; experiment: PAI-1 promoter luciferase reporter assay of conditioned media of CAG-heparanase MM cells treated with TSP1; type: cell-based, human; conditions: 67 nM TSP1, conditioned media
Procedure: Referring to FIG. 4B, CAG-heparanase MM cells were treated with 67 nM TSP1 and conditioned media were assessed for TGF-β activity using PAI-1 promoter luciferase reporter assay. There is ˜[…] TGF-β in the added TSP1 and LSKL (SEQ ID NO:1) blocks 80% of the CAG-heparanase MM cell generated TGF-β activity.

[13] = cited from earlier work
[14] = 30 mg/kg i.p., 3 times weekly, 15 weeks; cited from earlier work
[15] = biological target: recombinant latent TGF-β1 (purchased from R&D Systems) (UniProt P01137); experiment: cell-based or functional assay
Chain of recombinant latent TGF-β1 (purchased from R&D Systems) (P01137 30-390 limits assumed): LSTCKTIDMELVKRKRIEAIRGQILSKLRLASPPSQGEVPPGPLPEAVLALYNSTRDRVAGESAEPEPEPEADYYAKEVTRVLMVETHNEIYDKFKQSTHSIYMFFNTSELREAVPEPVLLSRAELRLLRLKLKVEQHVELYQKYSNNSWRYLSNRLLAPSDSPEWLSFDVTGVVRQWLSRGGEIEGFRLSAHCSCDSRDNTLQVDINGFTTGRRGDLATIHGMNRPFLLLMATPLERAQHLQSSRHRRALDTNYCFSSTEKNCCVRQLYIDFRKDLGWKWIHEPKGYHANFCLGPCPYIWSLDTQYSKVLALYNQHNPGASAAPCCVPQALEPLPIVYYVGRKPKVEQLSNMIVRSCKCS

[16] = ELISA-based assay, Table 2, read-out: % Inhibition at 50 pM
[17] = Conc. of compound 1 pM (last column: 30 nM)
[18] = Conc. of compound 50 pM (last column: 300 nM)
[19] = Conc. of compound 100 pM (last column: 3 μM)

inhibition at 50 pM [1, 16]: 50%
Compound: CC(=O)N[C@@H](CCCN)C(=O)Nc1cc(C)c[nH]c1=O [Compound 30, (S)-2-acetamido-5-amino-N-(5-methyl-2-oxo-1,2-dihydropyridin-3-yl)pentanamide]

% Inhibition at 50 pM ([1]; ELISA-based assay): 59% and 85%
Compound: CCCC(=O)N[C@@H](CCCN)C(=O)N[C@@H](CC(C)C)C(N)=O [Compound 63, (S)-5-amino-N—((S)-1-amino-4-methyl-1-oxopentan-2-yl)-2-butyramidopentanamide] (Butyryl-[Orn]-Leu-NH2)
% Inhibition [2, 17]: 67% | Conc. of Active TGF-β (pM) [2, 17]: 2.2 pM | % Inhibition [2, 18]: 82% | Conc. of Active TGF-β (pM) [2, 18]: 0.7 pM | % Inhibition [2, 19]: 100% | Conc. of Active TGF-β (pM) [2, 19]: 0 pM

latent TGF-β activation by TSP1 in vitro (TGF-β1 activity vs TSP1+latent TGF-β) [3]: not significant
Compound: SLLK

inhibition at 50 pM [1, 16]: 100% | inhibition at 50 pM ([1]; read-out: Primary Assay (% Inhibition at 50 pM)): 79% | Solubility [4]: 4.5 µM (≈ 1.16 µg/mL) | logD [5]: 1 | half-life [6]: 2.84 h | half-life [7]: 5 h | Tmax [8]: 0.5 h | bioavailability [8]: 5% | half-life ([8]; iv): 1.9 h
Compound: CC(=O)N[C@@H](CCCN)C(=O)NC(C)(C)C(N)=O [Compound 8, (S)-2-acetamido-5-amino-N-(1-amino-2-methyl-1-oxopropan-2-yl)pentanamide] (Ac-[Orn]-[Aib]-NH2)
% Inhibition [2, 17]: 65% | Conc. of Active TGF-β (pM) [2, 17]: 2.3 pM | % Inhibition [2, 18]: 79% | Conc. of Active TGF-β (pM) [2, 18]: 0.81 pM | % Inhibition [2, 19]: 80% | Conc. of Active TGF-β (pM) [2, 19]: 0.78 pM | inhibition at 0.3 µM ([2]; Homo sapiens, read-out: Secondary Assay: % Inhibition at 300 nM): 92%

osteoblast differentiation by MSCs (alkaline phosphatase staining, Runx2 expression) [9]: Decrease Osteoblast Differentiation
Compound: Thrombospondin 1 [TSP1]
TGF-β activity in CAG MM cells (phospho-Smad 2) [10]: Induces TGF-B Activity

osteoblast differentiation by MSCs (alkaline phosphatase staining, Runx2 expression) [9]: Increases Osteoblast Differentiation
Compound: LSKL
MM tumor burden (bioluminescence, serum Ig kappa) ([11]; 30 mg/kg/day by subcutaneous osmotic pump, 2 and 4 weeks of treatment): Reduces Mm Tumor Burden | phospho-Smad 2 staining in the bone marrow ([11]; 4 weeks of treatment, tibiae): Reduces Phospho-Smad 2 | TGF-β activity in CAG MM cells (phospho-Smad 2) [10]: Reduces TGF-B Activity | block of CAG-heparanase MM cell generated TGF-β activity [12]: 80% | plasma stability half-life [13]: 2.1 min | necropsy findings after treatment [14]: no inflammation, no tumors in all major organs, and no impairment of wound healing

inhibition at 50 pM [1, 16]: 30%
Compound: CC(C)C[C@H](NC(=O)[C@H](CCCN)NC(=O)C1CCCC1)C(N)=O [Compound 37, N—((S)-5-amino-1-(((S)-1-amino-4-methyl-1-oxopentan-2-yl)amino)-1-oxopentan-2-yl)cyclopentanecarboxamide]

% Inhibition at 50 pM ([1]; ELISA-based assay): 63% and 99%
Compound: CC(=O)N[C@@H](CC(C)C)C(=O)N[C@@H](CCCN)C(N)=O [Compound 61, (S)-2-acetamido-N—((S)-1,5-diamino-1-oxopentan-2-yl)-4-methylpentanamide] (Ac-Leu-[Orn]-NH2)

inhibition at 50 pM [1, 16]: 100%
Compound: CC(=O)N[C@@H](CCCN)C(=O)NCC(N)=O [Compound 82, (S)-2-acetamido-5-amino-N-(2-amino-2-oxoethyl)pentanamide] (Ac-[Orn]-Gly-NH2)
% Inhibition [2, 17]: 17% | Conc. of Active TGF-β (pM) [2, 17]: 4.2 pM | % Inhibition [2, 18]: 80% | Conc. of Active TGF-β (pM) [2, 18]: 0.79 pM | % Inhibition [2, 19]: 100% | Conc. of Active TGF-β (pM) [2, 19]: 0 pM

Conc. of Active TGF-β (pM), ELISA which detects only active TGF-β [15]: 4.9 pM
Compound: Thrombospondin 1 (TSP1), purified human platelet TSP-1 (from UniProt P07996 19-1170)

osteoblast differentiation by MSCs (alkaline phosphatase staining, Runx2 expression) [9]: Decrease Osteoblast Differentiation
Compound: TGF-β

inhibition at 50 pM [1, 16]: 35%
Compound: CC(=O)N[C@@H](CCCN)C(=O)NC1(C(N)=O)CCCC1 [Compound 13, (S)-1-(2-Acetamido-5-aminopentanamido)cyclopentanecarboxamide] (Ac-[Orn]-[Ac5c]-NH2)
